Test results as given in EP0400686A1, “2-Amino-9-[1,3bis-(isopropoxy)-propyl-2-oxymethyl]-purine, its utilization and medicaments containing it” (HOECHST AKTIENGESELLSCHAFT, priority 1985, dated 1987).

Tested on: Herpes simplex Typ 1
Assay: In vivo test: NMRI mice infected intraperitoneally with Herpes simplex type 1, treated i.p. twice daily for 5 days, survival rate
Settings: Herpes simplex Typ 1 an der NMRI-Maus
Excerpt: NMRI-Mäuse, spezifisch pathogenfrei, im Gewicht von etwa 15 g wurden intraperitoneal mit Herpes simplex Typ 1 infiziert und anschließend mit den beschriebenen Verbindungen intraperitoneal therapiert. Als Vergleich diente stets Acyclovir (ACV). Die Behandlung erfolgte zweimal täglich über 5 Tage, beginnend nach der Infektion. Der Behandlungserfolg wurde anhand des Krankheitsverlaufes und der Überlebensrate gegenüber den unbehandelten Infektionskontrollen bestimmt. Letztere erhielten anstelle der zu prüfenden Verbindungen eine wasserlösliche Methylhydroxyäthylcellulose (Viskosität […] in 2 %iger Lösung) (^(R)Tylose MH 300 P) appliziert.
Die chemaotherapeutische Wirkung erfindungsgemäßer Verbindungen ist aus Tabelle 1 ersichtlich.

[1] = Dosierung 10 x 0,2 mg/Maus i.p.
[2] = Dosierung 10 x 0,6 mg/Maus i.p.

SMILES	Mittlere Überlebensrate x/10 [1]	Mittlere Überlebensrate x/10 [2]
CC(=O)OCC(COC(C)C)OCn1cnc2c(=O)[nH]c(N)nc21 (racemic) [Verbindung 20, 9-(1-Isopropoxymethyl-2-acetoxyäthoxymethyl)-guanin]	10/10	10/10
CC(=O)OCC(CN=[N+]=[N-])OCn1cnc2c(=O)[nH]c(N)nc21 (racemic) [Verbindung 9, 9-(1-Azidomethyl-2-acetoxyäthoxymethyl)-guanin]	9/10	9/10
